Data taken from patent US20260130933A1, “PHARMACEUTICAL COMPOSITION FOR PREVENTION OR TREATMENT OF NEPHROPATHY AND/OR DIABETES MELLITUS, COMPRISING ENAVOGLIFLOZIN” (DAEWOONG PHARMACEUTICAL CO., LTD., priority 2022, published 2026).

Assay: Example 3: phase 3 trial, enavogliflozin 0.3 mg vs dapagliflozin 10 mg once a day for 24 weeks added to metformin and gemigliptin in patients with type 2 diabetes (same endpoints, rescue drug)
Type: in vivo, human
Procedure: 1) when Metformin (≥1,000 mg/Day) was Administered at a Constant Dose for at Least 8 Weeks Prior to Pre-Visit (Pre-Screening) • Metformin (≥1,000 mg/day) and gemigliptin (50 mg/day) were co-administered during the 8-week stabilization period. […] 4) when Metformin (≥1,000 mg/Day) and Gemigliptin (50 mg/Day) were Co-Administered at Constant Doses for at Least 8 Weeks Prior to Pre-Visit (Prescreening) • Without a separate stabilization period, Pre-visit (pre-screening) was Visit 1 (screening).
Subjects who met the inclusion/exclusion criteria continued to receive metformin and gemigliptin while receiving a placebo of the clinical trial drug in a single-blind (subject-blinded) state for a 2-week run-in period.
Here, the randomized subjects were stratified according to the administration therapy (co-administration with two or less agents (one or two agents) or three or more agents) of a conventional hypoglycemic agent (before washout of another hypoglycemic agent) within 24 weeks prior to obtaining written informed consent and by an HbA1c value (<8% or ≥8%) at Visit 1 (screening) measured in the central laboratory.
The randomized subjects were administered two tablets of the clinical trial drug corresponding to each administration group once a day, and then visited the institution at weeks 6, 12, 18, and 24 during the 24-week administration period to conduct efficacy and safety assessments. In addition, during the clinical trial period, they were instructed to exercise regularly and control their diet without changing their daily life patterns.
• 1) Change in HbA1c at week 24 after administration of clinical trial drug compared to Visit 2 (randomization)
• 1) Change in HbA1c at each time point of weeks 6, 12, and 18 after administration of clinical trial drug compared to Visit 2 (randomization) • 2) Change in FPG at each time point of weeks 6, 12, 18, and 24 after administration of clinical trial drug compared to Visit 2 (randomization) • 3) Proportion of subjects achieving HbA1c<7% at each time point of weeks 6, 12, 18, and 24 after administration of clinical trial drug • 4) Proportion of subjects achieving HbA1c<6.5% at each time point of weeks 6, 12, 18, and 24 after administration of clinical trial drug • 5) Proportion of subjects achieving therapeutic response (HbA1c change (HbA1c at Visit 2—HbA1c at each evaluation time point)>0.5% or HbA1c<7% at each evaluation time point compared to Visit 2 (randomization)) at each time point of weeks 6, 12, 18, and 24 after administration of clinical trial drug • 6) Proportion of subjects achieving therapeutic response (HbA1c change (HbA1c at Visit 2—HbA1c at each evaluation time point)>0.7% or HbA1c<7% at each evaluation time point compared to Visit 2 (randomization)) at each time point of weeks 6, 12, 18, and 24 after administration of clinical trial drug • 7) Proportion of subjects achieving therapeutic response (HbA1c change (HbA1c at Visit 2—HbA1c at each evaluation time point)>1% or HbA1c<7% at each evaluation time point compared to Visit 2 (randomization)) at each time point of weeks 6, 12, 18, and 24 after administration of clinical trial drug

[1] = week 12, per-protocol set, enavogliflozin 0.3 mg, dapagliflozin 10 mg
[2] = week 18, modified per-protocol set 1, enavogliflozin 0.3 mg, dapagliflozin 10 mg
[3] = week 18, modified per-protocol set 2
[4] = week 18, modified per-protocol set 2, enavogliflozin 0.3 mg, dapagliflozin 10 mg
[5] = week 18, per-protocol set, enavogliflozin 0.3 mg, dapagliflozin 10 mg

## CCOc1ccc(Cc2cc([C@@H]3O[C@H](CO)[C@@H](O)[C@H](O)[C@H]3O)ccc2Cl)cc1 [Dapagliflozin, reference compound]
[1]
  Subjects achieving HbA1c target of <7%, %: 63.41%
  body weight, Median: 63.20 kg
Week 12, per-protocol set, response 1 = HbA1c change >0.5% or HbA1c <7%, enavogliflozin 0.3 mg, dapagliflozin 10 mg
  Subjects achieving therapeutic glycemic response 1, %: 89.43%
Week 12, per-protocol set, response 2 = HbA1c change >0.7% or HbA1c <7%, enavogliflozin 0.3 mg, dapagliflozin 10 mg
  Subjects achieving therapeutic glycemic response 2, %: 82.11%
Week 12, per-protocol set, response 3 = HbA1c change >1% or HbA1c <7%, enavogliflozin 0.3 mg, dapagliflozin 10 mg
  Subjects achieving therapeutic glycemic response 3, %: 73.98%
Week 18
  FPG change from baseline, LS mean (SE): −23.55(1.59) mg/dL
  HDL-C change from baseline, LS mean (SE): 3.42(0.62) mg/dL
  HOMA-IR change from baseline, LS mean (SE): −1.01(0.11)
  HOMA-β change from baseline, LS mean (SE): 4.49(2.22)
  HbA1c change from baseline, LS mean (SE): −0.75(0.04) % p
  LDL-C change from baseline, LS mean (SE): 1.38(1.59) mg/dL
  UACR change from baseline, LS mean (SE): −8.90(3.79) g/kg
  UGCR change from baseline, LS mean (SE): 45.40(2.27) mg/mg
  adiponectin change from baseline, LS mean (SE): 0.36(0.32) μg/mL
  body weight change from baseline, LS mean (SE): −3.01(0.23) kg
  diastolic blood pressure change from baseline, LS mean (SE): −2.42(0.68) mmHg
  fasting C-peptide change from baseline, LS mean (SE): −0.06(0.02) ng/mL
  leptin change from baseline, LS mean (SE): −1.06(0.51) ng/ml
  systolic blood pressure change from baseline, LS mean (SE): −5.16(0.88) mmHg
  total cholesterol change from baseline, LS mean (SE): 3.66(1.88) mg/dL
  triglyceride change from baseline, LS mean (SE): −12.39(4.34) mg/dL
[2]
  Change from baseline in HDL-C, ANCOVA LS mean: 3.42 mg/dL
  Change from baseline in HDL-C, Mean: 3.57 mg/dL
  Change from baseline in HDL-C, Median: 3.00 mg/dL
  Change from baseline in LDL-C, ANCOVA LS mean: 1.38 mg/dL
  Change from baseline in LDL-C, Mean: 0.93 mg/dL
  Change from baseline in LDL-C, Median: 1.50 mg/dL
  Change from baseline in total cholesterol, ANCOVA LS mean: 3.66 mg/dL
  Change from baseline in total cholesterol, Mean: 2.51 mg/dL
  Change from baseline in total cholesterol, Median: 1.00 mg/dL
  Change from baseline in triglycerides, ANCOVA LS mean: -12.39 mg/dL
  Change from baseline in triglycerides, Mean: -17.31 mg/dL
  Change from baseline in triglycerides, Median: -8.50 mg/dL
  Fasting HDL-C, Mean: 50.99 mg/dL
  Fasting HDL-C, Median: 51.00 mg/dL
  Fasting LDL-C, Mean: 78.33 mg/dL
  Fasting LDL-C, Median: 73.00 mg/dL
  Fasting total cholesterol, Mean: 146.31 mg/dL
  Fasting triglycerides, Mean: 115.18 mg/dL
  Fasting triglycerides, Median: 103.00 mg/dL
  fasting Total cholesterol, Median: 141.00 mg/dL
[3]
  Change from baseline in diastolic blood pressure, ANCOVA LS mean: −2.42 mmHg
  Change from baseline in diastolic blood pressure, Mean: −2.12 mmHg
  Change from baseline in diastolic blood pressure, Median: −2.00 mmHg
  Diastolic blood pressure, Mean: 71.75 mmHg
  Diastolic blood pressure, Median: 71.00 mmHg
[4]
  Change from baseline in systolic blood pressure, ANCOVA LS mean: −5.16 mmHg
  Change from baseline in systolic blood pressure, Mean: −4.63 mmHg
  Change from baseline in systolic blood pressure, Median: −4.00 mmHg
  Systolic blood pressure, Mean: 119.31 mmHg
  Systolic blood pressure, Median: 118.00 mmHg
Week 18, per-protocol set
  Adiponectin, Mean: 6.65 µg/mL
  Adiponectin, Median: 6.21 µg/mL
  Change from baseline in HOMA-IR, ANCOVA LS mean: −1.01
  Change from baseline in HOMA-IR, Mean: −1.00
  Change from baseline in HOMA-IR, Median: −0.75
  Change from baseline in HOMA-β, ANCOVA LS mean: 4.49
  Change from baseline in HOMA-β, Mean: 5.32
  Change from baseline in HOMA-β, Median: 2.20
  Change from baseline in UACR, ANCOVA LS mean: -8.90 g/kg
  Change from baseline in UACR, Mean: -8.84 g/kg
  Change from baseline in UACR, Median: 0.20 g/kg
  Change from baseline in UGCR, ANCOVA LS mean: 45.40 mg/mg
  Change from baseline in UGCR, Mean: 43.29 mg/mg
  Change from baseline in UGCR, Median: 41.28 mg/mg
  Change from baseline in adiponectin, ANCOVA LS mean: 0.36 µg/mL
  Change from baseline in adiponectin, Mean: 0.30 µg/mL
  Change from baseline in adiponectin, Median: 0.36 µg/mL
  Change from baseline in leptin, ANCOVA LS mean: -1.06 ng/mL
  Change from baseline in leptin, Mean: -1.36 ng/mL
  Change from baseline in leptin, Median: -0.75 ng/mL
  HOMA-IR (insulin resistance), Mean: 1.85
  HOMA-IR (insulin resistance), Median: 1.53
  HOMA-β (beta-cell function), Mean: 45.79
  HOMA-β (beta-cell function), Median: 36.80
  Leptin, Mean: 9.52 ng/mL
  Leptin, Median: 7.80 ng/mL
  UACR, Mean: 25.86 g/kg
  UACR, Median: 10.20 g/kg
  UGCR, Mean: 44.82 mg/mg
  UGCR, Median: 42.32 mg/mg
[5]
  Body weight, Mean: 64.37 kg
  Change from baseline in FPG, ANCOVA LS mean: -23.55 mg/dL
  Change from baseline in FPG, Mean: -24.80 mg/dL
  Change from baseline in FPG, Median: -19.00 mg/dL
  Change from baseline in HbA1c, ANCOVA LS mean: −0.75 % p
  Change from baseline in HbA1c, Mean: −0.79 % p
  Change from baseline in HbA1c, Median: −0.72 % p
  Change from baseline in body weight, ANCOVA LS mean: -3.01 kg
  Change from baseline in body weight, Mean: -2.84 kg
  Change from baseline in body weight, Median: -2.70 kg
  Change from baseline in fasting C-peptide, ANCOVA LS mean: -0.06 ng/mL
  Change from baseline in fasting C-peptide, Mean: -0.06 ng/mL
  Change from baseline in fasting C-peptide, Median: -0.07 ng/mL
  FPG, Mean: 115.72 mg/dL
  FPG, Median: 114.00 mg/dL
  Fasting C-peptide, Mean: 0.63 ng/mL
  Fasting C-peptide, Median: 0.60 ng/mL
  HbA1c, Mean: 7.04%
  HbA1c, Median: 6.97%
  Subjects achieving HbA1c target of <6.5%, (%): 12.20%
  Subjects achieving HbA1c target of <7%, %: 56.10%
